Results reported in patent US20130217664A1, “NOVEL COMPOUNDS USEFUL FOR THE TREATMENT OF DEGENERATIVE AND INFLAMMATORY DISEASES” (priority 2012, published 2013).
Where two headings read alike, the source gives them in different places.

Assays:
human TYK2 = molecular target: T1, human TYK2 (Homo sapiens, UniProt P29597); test: TYK2 inhibition assay; format: biochemical; details: recombinant human TYK2 catalytic domain, polyGT substrate
T1 construct: catalytic domain (amino acids 871-1187; catalog number 08-147); purchased Carna Biosciences 08-147
T1 sequence (P29597 871-1187): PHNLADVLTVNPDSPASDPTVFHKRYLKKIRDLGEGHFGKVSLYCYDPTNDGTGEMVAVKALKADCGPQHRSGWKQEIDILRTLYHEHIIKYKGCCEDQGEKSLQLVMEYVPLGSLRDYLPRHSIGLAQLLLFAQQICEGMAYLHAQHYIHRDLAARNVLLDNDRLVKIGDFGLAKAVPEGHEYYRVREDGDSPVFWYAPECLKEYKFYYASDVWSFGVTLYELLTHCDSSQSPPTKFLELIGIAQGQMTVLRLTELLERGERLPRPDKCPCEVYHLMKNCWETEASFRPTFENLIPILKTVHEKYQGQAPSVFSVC
Outline: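 Radiometric kinase reaction run 90 min at 30 °C, stopped with phosphoric acid, washed and scintillation-counted.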

human JAK1 = molecular target: T2, human JAK1 (Homo sapiens, UniProt P23458); test: JAK1 inhibition assay (polyGT substrate / Ulight-JAK1 peptide); format: biochemical; details: recombinant human JAK1 catalytic domain; polyGT or Ulight-JAK1 peptide assay
T2 construct: catalytic domain, amino acids 866-1154; catalog number PV4774; purchased Invitrogen PV4774
T2 sequence (P23458 866-1154): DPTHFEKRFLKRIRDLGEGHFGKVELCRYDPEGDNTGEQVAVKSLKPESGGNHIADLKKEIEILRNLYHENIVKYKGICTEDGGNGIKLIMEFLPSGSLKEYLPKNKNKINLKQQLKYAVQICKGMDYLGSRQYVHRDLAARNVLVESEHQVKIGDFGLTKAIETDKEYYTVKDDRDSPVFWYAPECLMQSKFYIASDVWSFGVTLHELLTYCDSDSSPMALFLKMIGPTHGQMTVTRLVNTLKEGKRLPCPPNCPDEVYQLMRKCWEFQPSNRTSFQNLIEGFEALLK
Outline: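 Two formats. PolyGT radiometric: 45 min at 30 °C, stopped with phosphoric acid, counted as cpm. Ulight-JAK1 peptide: 60 min at room temperature, stopped with Eu-anti-phosphotyrosine/EDTA, read as RFU. Percent inhibition normalised to vehicle and 10 μM staurosporine.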

[1] = tested on: pSTAT1(2)-luciferase reporter in HeLa cells triggered with human OSM; test: JAK-STAT signalling assay; format: cell-based; details: HeLa cells, pSTAT1(2)-luciferase reporter, human OSM 33 ng/mL, read-out: JAK-STAT IC50
Outline: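 HeLa cells transiently co-transfected with pSTAT1(2)-luciferase and LacZ control reporter, preincubated with compound 60 min, then stimulated with human OSM (33 ng/mL final) overnight at 37 °C. Luciferase read by luminescence; percent inhibition from vehicle and no-trigger controls, EC50 from dose-response.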

human JAK3 = molecular target: T3, human JAK3 (Homo sapiens, UniProt P52333); test: JAK3 inhibition assay; format: biochemical; details: recombinant human JAK3 catalytic domain; polyGT substrate
T3 construct: catalytic domain (amino acids 781-1124; catalog number PV3855); purchased Invitrogen PV3855
T3 sequence (P52333 781-1124): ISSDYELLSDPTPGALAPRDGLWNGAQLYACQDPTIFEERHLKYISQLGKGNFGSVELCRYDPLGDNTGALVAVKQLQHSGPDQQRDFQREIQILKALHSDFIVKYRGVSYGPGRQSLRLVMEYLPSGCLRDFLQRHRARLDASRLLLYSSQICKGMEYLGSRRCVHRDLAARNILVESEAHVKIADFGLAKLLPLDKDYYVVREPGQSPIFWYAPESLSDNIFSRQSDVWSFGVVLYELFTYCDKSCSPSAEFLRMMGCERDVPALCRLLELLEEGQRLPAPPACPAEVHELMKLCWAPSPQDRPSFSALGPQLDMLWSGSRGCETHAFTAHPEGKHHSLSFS
Outline: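 Radiometric kinase assay: 0.5 ng JAK3 with 2.5 μg polyGT in Tris pH 7.5/MgCl2 buffer, 1 μM ATP plus 0.25 μCi 33P-γ-ATP, 1% DMSO, 45 min at 30 °C, stopped with phosphoric acid.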

BA/F3 cell line = test: BA/F3 viability assay; details: Mus musculus, BaF3, 48 h, read-out: BA/F3 IC50
CTLL-2 cell line = test: CTLL2 viability assay; format: cell-based; details: Mus musculus, IL-2 dependent CTLL2 viability, 24 h, ATP-lite
Description: The protocol describes the methods to analyse the activity of compounds on their ability to sustain the IL2-dependent viability of CTLL2.
Final DMSO concentration was 0.1%.

human JAK2 = molecular target: T4, human JAK2 (Homo sapiens, UniProt O60674); test: JAK2 inhibition assay (polyGT substrate / Ulight-JAK1 peptide); format: biochemical; details: recombinant human JAK2 catalytic domain; polyGT or Ulight-JAK1 peptide assay
T4 construct: catalytic domain (amino acids 808-1132; catalog number PV4210); GST; purchased Invitrogen PV4210
T4 sequence (O60674 808-1132): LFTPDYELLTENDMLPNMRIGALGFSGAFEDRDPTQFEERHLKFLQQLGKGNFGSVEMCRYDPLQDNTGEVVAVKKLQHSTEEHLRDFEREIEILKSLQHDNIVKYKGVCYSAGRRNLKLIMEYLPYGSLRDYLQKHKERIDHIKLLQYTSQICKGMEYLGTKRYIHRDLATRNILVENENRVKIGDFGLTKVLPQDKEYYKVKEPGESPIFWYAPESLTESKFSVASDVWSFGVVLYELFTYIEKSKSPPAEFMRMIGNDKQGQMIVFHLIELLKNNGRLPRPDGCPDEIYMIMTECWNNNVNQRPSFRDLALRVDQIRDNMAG
Outline: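 Radiometric: 0.025 mU JAK2 with 2.5 μg polyGT, 1 μM ATP plus ^33P-ATP in MOPS pH 7.5 buffer, 1% DMSO, 90 min at 30° C.; filter counting. Alternative TR-FRET format with Ulight-JAK1 peptide, 60 min at room temperature, Eu-anti-phosphotyrosine detection.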

Row | SMILES | IC50 (human TYK2) [nM] | IC50 (human JAK1) [nM] | IC50 ([1]; Homo sapiens, HeLa) [nM] | IC50 (human JAK3) [nM] | IC50 (BA/F3 cell line) [µM] | IC50 [1] [nM] | IC50 (human JAK2) [nM] | IC50 (CTLL-2 cell line) [nM]
1 | CCc1cc(C(N)=O)ccc1N(C)c1cc2c(cn1)ncn2C [Compound 137, 3-Ethyl-4-(methyl(1-methyl-1H-imidazo[4,5-c]pyridin-6-yl)amino)benzamide] | – | – | 501 to 1000 | – | – | – | – | > 1000
2 | CCc1cc(C2=CCN(C(=O)C(C)O)CC2)ccc1N(C)c1cc2c(cn1)ncn2C (stereo not drawn) [Compound 201, 1-(4-(3-ethyl-4-(methyl(1-methyl-1H-imidazo[4,5-c]pyridin-6-yl)amino)phenyl)-5,6-dihydropyridin-1(2H)-yl)-2-hydroxypropan-1-one] | 0.01 to 100 | 0.01 to 100 | 1 to 500 | 101 to 500 | – | – | – | 501 to 1000
3 | CCc1cc(C2CCN(C(=O)C(F)F)CC2)ccc1N(C)c1cc2c(cn1)ncn2C [Compound 225, 1-(4-(3-ethyl-4-(methyl(1-methyl-1H-imidazo[4,5-c]pyridin-6-yl)amino)phenyl)piperidin-1-yl)-2,2-difluoroethanone] | 0.01 to 100 | 0.01 to 100 | – | 0.01 to 100 | 1 to 5 | 501 to 1000 | – | –
4 | CN(c1cc2c(cn1)ncn2C)c1ccc(CNS(C)(=O)=O)cc1F [Compound 269, N-(3-Fluoro-4-(methyl(1-methyl-1H-imidazo[4,5-c]pyridin-6-yl)amino)benzyl)methanesulfonamide] | 0.01 to 100 | 0.01 to 100 | 501 to 1000 | 101 to 500 | > 5 | – | – | –
5 | CCc1cc(C2CN(C(=O)C3CCOCC3)C2)ncc1N(C)c1cc2c(cn1)ncn2C [Compound 337, (3-{4-Ethyl-5-[methyl-(1-methyl-1H-imidazo[4,5-c]pyridin-6-yl)-amino]-pyridin-2-yl}-azetidin-1-yl)-(tetrahydro-pyran-4-yl)-methanone] | > 1000 | 501 to 1000 | – | > 1000 | > 5 | – | > 1000 | > 1000
6 | CCc1cc(C2CN(CCC(F)(F)F)C2)ncc1N(C)c1cc2c(cn1)ncn2C [Compound 341, {4-Ethyl-6-[1-(3,3,3-trifluoro-propyl)-azetidin-3-yl]-pyridin-3-yl}-methyl-(1-methyl-1H-imidazo[4,5-c]pyridin-6-yl)-amine] | > 1000 | 101 to 500 | – | > 1000 | > 5 | – | > 1000 | > 1000
7 | CCc1cc(CN(CC#N)S(C)(=O)=O)ncc1N(C)c1cc2c(cn1)ncn2C [Compound 344, N-Cyanomethyl-N-{4-ethyl-5-[methyl-(1-methyl-1H-imidazo[4,5-c]pyridin-6-yl)-amino]-pyridin-2-ylmethyl}-methanesulfonamide] | 101 to 500 | 0.01 to 100 | – | 0.01 to 100 | > 5 | – | 101 to 500 | > 1000
8 | CCc1cc(CN2CC(F)(F)C2)ccc1N(C)c1cc2c(cn1)ncn2C [Compound 378, [4-(3,3-Difluoro-azetidin-1-ylmethyl)-2-ethyl-phenyl]-methyl-(1-methyl-1H-imidazo[4,5-c]pyridin-6-yl)-amine] | – | – | – | – | > 5 | – | – | > 1000
9 | CCc1cc(C(C#N)N2CCN(C)CC2)ccc1N(C)c1cc2c(cn1)ncn2C (stereo not drawn) [Compound 449, {3-Ethyl-4-[methyl-(1-methyl-1H-imidazo[4,5-c]pyridin-6-yl)-amino]-phenyl}-(4-methyl-piperazin-1-yl)-acetonitrile] | 0.01 to 100 | 0.01 to 100 | – | > 1000 | – | – | 101 to 500 | > 1000
10 | CCc1cc(C(C#N)N2CC(O)C2)ccc1N(C)c1cc2c(cn1)ncn2C (stereo not drawn) [Compound 450, {3-Ethyl-4-[methyl-(1-methyl-1H-imidazo[4,5-c]pyridin-6-yl)-amino]-phenyl}-(3-hydroxy-azetidin-1-yl)-acetonitrile] | 0.01 to 100 | 0.01 to 100 | – | 101 to 500 | – | – | 0.01 to 100 | > 1000
11 | CCOC(=O)C1CN(C(C#N)c2ccc(N(C)c3cc4c(cn3)ncn4C)c(CC)c2)C1 (stereo not drawn) [Compound 453, 1-(Cyano-{3-ethyl-4-[methyl-(1-methyl-1H-imidazo[4,5-c]pyridin-6-yl)-amino]-phenyl}-methyl)-azetidine-3-carboxylic acid ethyl ester] | 0.01 to 100 | 0.01 to 100 | – | 501 to 1000 | – | – | 0.01 to 100 | > 1000

Now from value to molecule, other results behind:

Row | IC50 (human TYK2) [nM] | IC50 (human JAK1) [nM] | IC50 ([1]; Homo sapiens, HeLa) [nM] | IC50 (human JAK3) [nM] | IC50 (BA/F3 cell line) [µM] | IC50 [1] [nM] | IC50 (human JAK2) [nM] | SMILES | IC50 (CTLL-2 cell line) [nM]
12 | 101 to 500 | 0.01 to 100 | 1 to 500 | 501 to 1000 | > 5 | – | – | CCc1cc(-c2cncc(F)c2)ccc1N(C)c1cc2c(cn1)ncn2C [Compound 133, N-(2-ethyl-4-(5-fluoropyridin-3-yl)phenyl)-N,1-dimethyl-1H-imidazo[4,5-c]pyridin-6-amine] | –
13 | 0.01 to 100 | 0.01 to 100 | – | 0.01 to 100 | 1 to 5 | – | – | CCc1cc(CN(C)S(C)(=O)=O)ccc1N(C)c1cc2c(cn1)ncn2C [Compound 261, N-(3-ethyl-4-(methyl(1-methyl-1H-imidazo[4,5-c]pyridin-6-yl)amino)benzyl)-N-methylmethanesulfonamide] | 501 to 1000
14 | 101 to 500 | 0.01 to 100 | – | 101 to 500 | > 5 | – | 101 to 500 | CCn1nc(-c2ccc(Cl)cc2)cc1N(C)c1cc2c(cn1)ncn2C [Compound 307, [5-(4-Chloro-phenyl)-2-ethyl-2H-pyrazol-3-yl]-methyl-(1-methyl-1H-imidazo[4,5-c]pyridin-6-yl)-amine] | > 1000
15 | > 1000 | 101 to 500 | – | > 1000 | > 5 | – | > 1000 | CCc1cc(C2CN(CC(F)(F)F)C2)ncc1N(C)c1cc2c(cn1)ncn2C [Compound 342, {4-Ethyl-6-[1-(2,2,2-trifluoro-ethyl)-azetidin-3-yl]-pyridin-3-yl}-methyl-(1-methyl-1H-imidazo[4,5-c]pyridin-6-yl)-amine] | > 1000
16 | 0.01 to 100 | 0.01 to 100 | – | 101 to 500 | > 5 | – | 0.01 to 100 | CCc1cc(C2CN(C(=O)C(F)F)C2)ccc1N(C)c1cc2c(cn1)ncn2C [Compound 346, 1-(3-{3-Ethyl-4-[methyl-(1-methyl-1H-imidazo[4,5-c]pyridin-6-yl)-amino]-phenyl)-azetidin-1-yl)-2,2-difluoro-ethanone] | > 1000
17 | 101 to 500 | 0.01 to 100 | – | 101 to 500 | > 5 | – | 101 to 500 | CCc1cc(C2CN(C(=O)C(F)(F)F)C2)ccc1N(C)c1cc2c(cn1)ncn2C [Compound 347, 1-(3-{3-Ethyl-4-[methyl-(1-methyl-1H-imidazo[4,5-c]pyridin-6-yl)-amino]-phenyl}-azetidin-1-yl)-2,2,2-trifluoro-ethanone] | > 1000
18 | 0.01 to 100 | 0.01 to 100 | – | 101 to 500 | – | – | 0.01 to 100 | CCc1cc(C(C#N)N2CCC(C(N)=O)CC2)ccc1N(C)c1cc2c(cn1)ncn2C (stereo not drawn) [Compound 451, 1-(Cyano-{3-ethyl-4-[methyl-(1-methyl-1H-imidazo[4,5-c]pyridin-6-yl)-amino]-phenyl}-methyl)-piperidine-4-carboxylic acid amide] | > 1000
19 | 0.01 to 100 | 0.01 to 100 | – | 0.01 to 100 | – | – | 0.01 to 100 | CCc1cc(C(C#N)N2CCC(S(C)(=O)=O)CC2)ccc1N(C)c1cc2c(cn1)ncn2C (stereo not drawn) [Compound 452, {3-Ethyl-4-[methyl-(1-methyl-1H-imidazo[4,5-c]pyridin-6-yl)-amino]-phenyl}-(4-methanesulfonyl-piperidin-1-yl)-acetonitrile] | 501 to 1000
